Experimental data taken from ChEMBL document CHEMBL6134912, “Novel Piperidine Substituted Pyrazolopyrimidine Derivatives as SGK1 Inhibitors for Treating Cardiovascular Diseases” (ACS Med Chem Lett, 2025).

target: T1, Serine/threonine-protein kinase Sgk1 (Homo sapiens, UniProt O00141); experiment: Inhibition of GST-tagged human SGK1 using fluorescein labelled ATP-competitive probe by homogeneous time-resolved fluorescence (HTRF) binding assay
T1 sequence (O00141 whole entry): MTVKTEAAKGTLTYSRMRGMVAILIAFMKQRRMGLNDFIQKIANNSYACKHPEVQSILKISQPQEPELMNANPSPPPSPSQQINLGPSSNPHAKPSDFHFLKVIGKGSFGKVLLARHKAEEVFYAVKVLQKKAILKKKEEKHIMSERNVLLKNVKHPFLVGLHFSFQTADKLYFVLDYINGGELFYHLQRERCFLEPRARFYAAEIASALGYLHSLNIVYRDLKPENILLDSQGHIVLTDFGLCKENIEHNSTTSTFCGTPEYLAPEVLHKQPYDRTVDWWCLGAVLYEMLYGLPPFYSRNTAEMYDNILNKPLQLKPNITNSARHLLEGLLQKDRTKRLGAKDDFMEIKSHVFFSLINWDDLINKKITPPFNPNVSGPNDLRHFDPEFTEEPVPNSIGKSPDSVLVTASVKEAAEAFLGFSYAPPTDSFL

Compound	IC50
Cc1nc(O[C@H]2CC[C@@H](N3CCC3)CC2)c(C(=O)N[C@@H]2CCCN(c3nn(C4=CC(=O)OC4)c4ncnc(N)c34)C2)s1	5 nM
COc1cc(C(=O)N[C@@H]2CCCN(c3nn(-c4ccc(S(C)(=O)=O)cc4)c4ncnc(N)c34)C2)ccn1	5 nM
Cc1nc(O[C@H]2CC[C@@H](NC(C)CO)CC2)c(C(=O)N[C@@H]2CCCN(c3nn(-c4ccc(C(N)=O)c(F)c4)c4ncnc(N)c34)C2)s1 (stereo partly specified)	5 nM

Molecules with a lower IC50, results first:

IC50	Compound
4 nM	Cc1nc(O[C@H]2CC[C@@H](NC3CCC3)CC2)c(C(=O)N[C@@H]2CCCN(c3nn(-c4ccc(C(N)=O)c(F)c4)c4ncnc(N)c34)C2)s1
4 nM	Cc1nc(O[C@H]2CC[C@@H](N(C)C)CC2)c(C(=O)N[C@@H]2CCCN(c3nn(-c4ccc(C(N)=O)c(F)c4)c4ncnc(N)c34)C2)s1
3 nM	CCC(CC)N[C@H]1CC[C@@H](Oc2nc(C)sc2C(=O)N[C@@H]2CCCN(c3nn(-c4ccc(C(N)=O)c(F)c4)c4ncnc(N)c34)C2)CC1
